ChEMBL document CHEMBL6177931, “Exploring diverse frontiers: Advancements of bioactive 4-aminoquinoline-based molecular hybrids in targeted therapeutics and beyond” (Eur J Med Chem, 2024)

Experiments:
[1] = test system: Plasmodium falciparum; assay: Antiplasmodial activity against chloroquine resistant Plasmodium falciparum K1 infected in human erythrocytes incubated for 48 hrs by lactate dehydrogenase assay; format: functional, organism-based; settings: K1, Erythrocyte
[2] = test system: Plasmodium falciparum; assay: Potency index, ratio of chloroquine IC50 to test compound IC50 for antimalarial activity against Plasmodium falciparum Dd2; format: functional
[3] = test system: Plasmodium falciparum; assay: Antimalarial activity against chloroquine sensitive sorbitol synchronized Plasmodium falciparum 3D7 assessed as inhibition of parasite growth incubated for 72 hrs by HRP2 ELISA based assay; format: functional, organism-based; settings: 3D7, 72 h
[4] = test system: Plasmodium falciparum; assay: Antimalarial activity against chloroquine resistant sorbitol synchronized Plasmodium falciparum W2 assessed as inhibition of parasite growth incubated for 72 hrs by HRP2 ELISA based assay; format: functional, organism-based; settings: W2, 72 h
[5] = test system: Plasmodium falciparum; assay: Antiplasmodial activity against chloroquine sensitive Plasmodium falciparum 3D7 incubated for 72 hrs by SYBR green I based fluorescence assay; format: functional, organism-based; settings: 3D7, 72 h

With `CCOC(=O)c1nn(CCNc2ccnc3cc(Cl)ccc23)c2c1C(c1ccc(CC)cc1)C(C#N)=C(N)O2` (stereo not given) the EC50 [1] was 20 nM.

In the case of `CC(C)Cc1ccc(C(C)C(=O)NCCNc2ccnc3cc(Cl)ccc23)cc1` (stereo not given), the “Ratio IC50” value [2] is reported as 4.

`COc1cc(NC(C)CCCN)c2ncccc2c1` (stereo not given) [PRIMAQUINE] gave an IC50 [3] of 1120 nM and an IC50 [4] of 182 nM.

In the case of `O=C(Cn1cc(COc2ccc(Br)cc2)nn1)NCCNc1ccnc2cc(Cl)ccc12`, the IC50 [5] is reported as 40 nM.
